Reference: paper PMC6940896, “Development of a Highly Efficient Hybrid Peptide That Increases Immunomodulatory Activity Via the TLR4-Mediated Nuclear Factor-κB Signaling Pathway” (International Journal of Molecular Sciences, 2019)
No end group written: not given here.

Key:
[1] = Ex vivo stability in plasma; type: in vitro ADME; details: rat plasma, in vitro, 37 °C, HPLC, log-linear regression; mean ± SEM of three biological replicates; read-out: t1/2, half-life in plasma (converted)
Method: The samples were collected into pre-chilled tubes containing 1 mL of acidic acetone (hydrochloric acid/acetone/H2O, 1:40:5, by volume). Subsequently, the mixture was centrifuged at 2 × 10^4 rpm at 4 °C for 20 min. The precipitates were dried in vacuo. The dried precipitates were dissolved in 0.5 mL of 1 M acetic acid. The peptide analysis was carried out according to the protocol for the study of Tα1 using HPLC [51]. The half-lives of the target peptides were calculated by a logarithm-linear regression analysis of the peptide concentrations.

[2] = system: CTX-immunosuppressed Balb/c mice; test: Body weight and immune organ indices in CTX-immunosuppressed mice; type: in vivo, mouse; details: CTX 80 mg/kg ip days 1-3, peptide 10 mg/kg ip days 4-10, n = 12
From the text: Female specific-pathogen-free (SPF) Balb/c mice (6-8 weeks of age, weighing 20 ± 2.0 g) were purchased from Charles River (Beijing, China). The mice were housed in a SPF environment at room temperature with a relative humidity of 55 ± 10% and allowed free access to food and water during the experiments. All of the animal protocols were approved by the Institutional Animal Care and Ethics Committee of the China Agricultural University (CAU20170430-4). […] Sigma-Aldrich, St. Louis, MO, USA) group, a LL-37 group, a Tα1 group, and a LTAa group. For the first 3 days, CTX (80 mg/kg mouse weight) was administered intraperitoneally once daily to establish the immunosuppressed animal model. From days 4 to 10 (7 days), peptides (10 mg/kg mouse weight) were administered intraperitoneally each day. The CTX group was only treated with CTX, and the control group was given sterile saline. The dose volume was 200 μL. Twenty-four hours after the last dose, the mice were killed and their tissues and blood collected for analysis. The body weight index was calculated in the following way:(2) Index (%)=final body weight-[…] body weight/initial body weight ×100% Spleen and thymus indices were calculated in the following way:(3) Index (mg/kg)=weight of thymus or spleen/body weight

[3] = target: T1, recombinant TLR4/MD2 (Homo sapiens, UniProt O00206+Q9Y6Y9); test: Surface plasmon resonance binding to immobilized TLR4/MD2; details: SPR, ProteOn XPR36, GLH chip, 25 °C, PBS 0.1% Tween 20 with 2% DMSO, 1:1 model, 0-10 μM peptide
T1 construct: purchased R&D Systems
Method: Surface plasmon resonance (SPR) experiments were performed using a ProteOn^TM XPR36 instrument (Bio-Rad, Hercules, CA, USA) with a ProteOn^TM GLH sensor chip (Bio-Rad) at 25 °C. PBS supplemented with 0.1% Tween 20 (containing 2% dimethyl sulfoxide) was used as a running buffer and was continuously passed into the reaction chamber at 30 μL/min. A SPR sensing chip with recombinant TLR4/MD2 (R&D Systems, Minneapolis, MN, USA) that was immobilized by amino coupling was used to capture the peptide, according to the manufacturer’s protocol. […] The running buffer was injected into the empty channel as a reference. Sensor chip regeneration and desorption were achieved by injecting 10 mM Gly-HCl buffer (pH 2.5) before the next round of analyses. The experimental data were analyzed by ProteOn Manager^TM software (version 2.0). Binding curves were processed for the initial injection alignment and baseline, and a reference-subtracted sensorgram was globally fitted to the curves to describe a homogeneous 1:1 model. Data from the protein surfaces were grouped together to fit the kinetic rate constants (Ka and Kd). The equilibrium dissociation constant (KD) for the peptide-TLR4/MD2 interaction was calculated using the following equation:(5) KD=Kd/Ka

[4] = system: CTX-immunosuppressed Balb/c mice; test: Serum cytokine and immunoglobulin ELISA in CTX-immunosuppressed mice; type: in vivo, mouse; details: peptide 10 mg/kg ip days 4-10, ELISA, n = 12
Method: Sigma-Aldrich, St. Louis, MO, USA) group, a LL-37 group, a Tα1 group, and a LTAa group. For the first 3 days, CTX (80 mg/kg mouse weight) was administered intraperitoneally once daily to establish the immunosuppressed animal model. From days 4 to 10 (7 days), peptides (10 mg/kg mouse weight) were administered intraperitoneally each day. The CTX group was only treated with CTX, and the control group was given sterile saline. The dose volume was 200 μL. Twenty-four hours after the last dose, the mice were killed and their tissues and blood collected for analysis. The body weight index was calculated in the following way:(2) Index (%)=final body weight-[…] body weight/initial body weight ×100% Serum was obtained from blood by centrifugation at 1000 × g for 20 min. Levels of TNF-α, IL-6, IL-1β, IgG, IgA, and IgM in the serum were detected by ELISA.

[5] = system: peritoneal macrophages; test: Peritoneal macrophage phagocytosis (neutral red uptake) in CTX-immunosuppressed mice; type: in vivo, mouse; details: peritoneal macrophages of mice, OD 540 nm, CTX 80 mg/kg ip days 1-3, peptide 10 mg/kg ip days 4-10, control group 55.67%, n = 12
Method: Peritoneal macrophages were aseptically obtained from the different groups of mice by peritoneal lavage with 5 mL ice-cold phosphate-buffered saline (PBS). The peritoneal macrophages were further isolated by incubating peritoneal exudate cells at 37 °C in a moist atmosphere (5% CO2, 95% air) for 3 h to allow the cells to adhere. The adherent cells were washed twice and collected as peritoneal macrophages.
The phagocytic capacity of the peritoneal macrophages was measured by the neutral red uptake method [52]. […] The OD was measured using a microplate reader at 540 nm. The phagocytic rate was calculated in the following way:(4) hagocytic rate (%)=OD540(sample)/OD540(control) ×100% where OD540 (sample) is the absorbance at 540 nm by peptide-treated cells and OD540 (control) is the absorbance at 540 nm by the cells without peptides treated.

[6] = system: RAW264.7 cells; test: Cytokine production in RAW264.7 macrophages (ELISA); type: cell-based, mouse; details: RAW264.7, 10 μg/mL peptide, 12 h (Figure 3 legend; method says 24 h), n = 5
Method: RAW264.7 cells were stimulated with or without 10 μg/mL peptides for 24 h at 37 °C in a humidified incubator with 5% CO2. Levels of TNF-α, IL-6, and IL-1β in the culture supernatant were measured using enzyme-linked immunosorbent assay (ELISA) kits according to the manufacturer’s instructions

T1 sequence (O00206 24-631 limits assumed, species assumed): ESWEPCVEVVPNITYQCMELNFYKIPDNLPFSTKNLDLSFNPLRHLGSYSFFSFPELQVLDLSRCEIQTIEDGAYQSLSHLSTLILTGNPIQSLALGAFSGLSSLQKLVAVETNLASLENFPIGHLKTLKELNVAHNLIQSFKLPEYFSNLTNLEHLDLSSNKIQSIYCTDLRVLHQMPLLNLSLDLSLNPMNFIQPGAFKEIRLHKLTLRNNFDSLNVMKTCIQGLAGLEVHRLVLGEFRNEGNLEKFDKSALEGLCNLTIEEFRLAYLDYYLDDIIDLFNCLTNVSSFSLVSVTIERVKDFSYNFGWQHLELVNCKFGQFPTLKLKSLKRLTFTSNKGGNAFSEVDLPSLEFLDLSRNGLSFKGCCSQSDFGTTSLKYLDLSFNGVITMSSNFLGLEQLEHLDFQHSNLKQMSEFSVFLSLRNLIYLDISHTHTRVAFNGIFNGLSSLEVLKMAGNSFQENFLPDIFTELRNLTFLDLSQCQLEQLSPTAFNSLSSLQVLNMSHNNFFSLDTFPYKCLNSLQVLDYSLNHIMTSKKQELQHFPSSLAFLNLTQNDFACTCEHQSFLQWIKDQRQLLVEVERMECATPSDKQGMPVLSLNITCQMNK
T1 sequence (Q9Y6Y9 19-160, species assumed): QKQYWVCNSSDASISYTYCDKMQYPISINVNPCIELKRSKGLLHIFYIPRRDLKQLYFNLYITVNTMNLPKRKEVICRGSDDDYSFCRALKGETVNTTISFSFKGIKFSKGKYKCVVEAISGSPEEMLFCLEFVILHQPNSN

Sequence: IGKEFKRIVQRIKDFLRNLVPRTEKEKKEVVE [LTAa]
- half-life [1]: 4.2 ± 1.13 h
- body weight [2]: rapidly recovered their weight
- spleen and thymus index [2]: reversed this effect
- Ka for binding to TLR4/MD2 [3]: 7.38e+09 M⁻¹ s⁻¹
- Kd (rate constant) for binding to TLR4/MD2 [3]: 0.362 s⁻¹
- serum TNF-α, IL-6 and IL-1β levels [4]: significantly higher TNF-α, IL-6, and IL-1β concentrations than those in the Tα1- or LL-37-treated groups
- macrophage phagocytic rate [5]: significantly higher phagocytic rates than those in the Tα1- or LL-37-treated groups
- TNF-α, IL-6 and IL-1β production/secretion [6]: remarkable increases
